Experimental data: US20250171404A1, “PCNA INHIBITORS AND USES THEREOF” (CITY OF HOPE, priority 2022, published 2025)

Key:
Format in all cases: cell-based
MDA-MB-468 = test: Cell growth IC50, screening of AOH1160 analogs; conditions: Homo sapiens, MDA-MB-468, read-out: IC50 values
OVCAR8 = test: Cell growth IC50, screening of AOH1160 analogs; conditions: Homo sapiens, OVCAR-8, read-out: IC50 values
HTC-116 = test: Cell growth IC50, screening of AOH1160 analogs; conditions: read-out: IC50 values
RKO = test: Cell growth IC50, screening of AOH1160 analogs; conditions: Homo sapiens, read-out: IC50 values
HCT-116 = test: Cell growth IC50, screening of AOH1160 analogs; conditions: Homo sapiens, HCT-116, read-out: IC50 values
[1] = system: DNA replication fork extension, SK-N-BE(2)-C or MDA-MB-231 cells; test: DNA combing analysis (replication fork extension); conditions: synchronized cells, 20 minutes
Description: FIGS. 7A-7E. Transcription dependent effect on DNA replication and damage. FIG. 7A: Left: Schematic of the cell fractionation procedure. Right: MDA-MB-468 cells were treated by increasing concentrations of AOH1996 (5, 50, or 500 nM) for 24 h. Cells treated with DMSO were used as control. Whole cell extract (WCE) and protein fractions associated with actively transcribed chromatin (CB:RNA+) or with low or non-transcribed chromatin (CB:RNA−) were analyzed by Western blot using antibodies against PCNA, CAF-1, and MCM7. FIG. 7B: Synchronized cancer cells were sequentially incubated in the presence of CldU (light grey) and IdU (dark grey) before and after AOH1996 treatment, respectively. […] Middle and Right: Lengths of CldU (light grey) and IdU (dark grey) incorporated DNA segments measured for more than 30 independent DNA strands from the indicated cancer cell type were averaged and graphed ±S.D. FIG. 7C: Whole cell lysates were extracted from SK-N-AS cells homozygous of the wildtype RPB1 allele or the APIM-mutant allele. Histone H2A.X and γH2A.X was analyzed by Western blot after treatment with or without AOH1996 overnight. FIG. 7D: Histone H2A.X and γH2A.X in whole cell lysates from SK-N-AS cells were analyzed by Western blot after treatment with 500 nM AOH1996 and/or 50 μM DRB overnight. […]

COc1cccc(Oc2ccccc2NC(=O)CNC(=O)c2cccc3ccccc23)c1 [AOH1996, N-(2-((2-(3-methoxyphenoxy)phenyl)amino)-2-oxoethyl)-1-naphthamide]
IC50 (MDA-MB-468): 740 nM | IC50 (OVCAR8): 549 nM | IC50 (HTC-116): 250 nM | IC50 (RKO): 255 nM | IC50 (HCT-116): 786 nM | length of IdU-incorporated DNA strands [1]: IdU-incorporated DNA strands became significantly shorter in cells treated by AOH1996 than untreated control cells
